# Patent US10829458B2 (Araxes Pharma LLC, priority 2015, dated 2020)
# Molecular target: T1, KRAS G12C 1-169, his-tagged protein, GDP-loaded (Homo sapiens, UniProt P01116, G12C)
# T1 construct: KRAS G12C 1-169, his-tagged protein, GDP-loaded
# Test: Biochemical assay: covalent modification of KRAS G12C measured by mass spectrometry (RapidFire/TOF or Q-Exactive)
# Conditions: covalent binding to KRAS G12C; compounds of structure (I)
# Description: Test compounds were prepared as 10 mM stock solutions in DMSO (Fisher cat #BP-231-100). KRAS G12C 1-169, his-tagged protein, GDP-loaded was diluted to 2 μm in buffer (20 mM Hepes, 150 mM NaCl, 1 mM MgCl2). Compounds were tested for activity as follows:
# Compounds were diluted to 50× final test concentration in DMSO in 96-well storage plates. Compound stock solutions were vortexed before use and observed carefully for any sign of precipitation. Dilutions were as follow: • For 100 μM final compound concentration, compounds were diluted to 5000 μM (5 μl 10 mM compound stock+5 μl DMSO and mixed well by pipetting. • For 30 μM final compound concentration, compounds were diluted to 1500 μM (3 μl 10 mM compound stock+17p DMSO) and mixed well by pipetting. • For 10 μM final compound concentration, compounds were diluted to 500 μM (2 μl 10 mM compound stock+38p DMSO) and mixed well by pipetting. 49p of the stock protein solution was added to each well of a 96-well PCR plate (Fisher cat #1423027). 1 μl of the diluted 50× compounds were added to appropriate wells in the PCR plate using 12-channel pipettor. Reactions were mixed carefully and thoroughly by pipetting up/down with a 200·1 multi-channel pipettor. The plate was sealed well with aluminum plate seal, and stored in drawer at room temperature for 30 min, 2 hour or 24 hrs. 5·1 of 2% formic acid (Fisher cat #A117) in DI H2O was then added to each well followed by mixing with a pipette. The plate was then resealed with aluminum seal and stored on dry ice until analyzed as described below.
# The above described assays were analyzed by mass spectrometry according to one of the following two procedures:
# The MS instrument is set to positive polarity, 2 GHz resolution, and low mass (1700) mode and allowed to equilibrate for 30 minutes. The instrument is then calibrated, switched to acquisition mode and the appropriate method loaded.
# After another 30 minute equilibration time, a blank batch (i.e., buffer) is run to ensure equipment is operating properly. The samples are thawed at 37° C. for 10 minutes, briefly centrifuged, and transfer to the bench top. Wells A1 and H12 are spiked with 1 uL 500 uM internal standard peptide, and the plates centrifuged at 2000×g for 5 minutes. The method is then run and masses of each individual well recorded.
# The masses (for which integration data is desired) for each well are pasted into the platemap and exported from the analysis. Masses for the internal standards are exported as well. The data at 50 ppm is extracted for the +19 charge state, and identity of well A1 is assigned using the internal standard spike and integrated. Peak data is exported as a TOF list and the above steps are repeated individually, for the +20, 21, 22, 23, 24, and 25 charge states.
# The masses and peak intensities of KRAS G12C protein species were measured using a Dionex RSLCnano system (Thermo Scientific) connected to a Q Exactive Plus mass spectrometer (Thermo Scientific).
# […] of sample was each loaded onto a Aeris™ 3.6 μm WIDEPORE C4 200 Å, LC Column 50×2.1 mm column maintained at 40° C. at a flow rate of 600 μl min^−1 with […] (0.1% formic acid in acetonitrile). The liquid chromatography conditions were 20% solvent B for 1 min, 20% to 60% solvent B for 1.5 min, 60% to 90% solvent for 0.5 min, 90% solvent B for 0.2 min, 90% to 20% solvent B for 0.2 min, and then equilibrated for 1.6 min before the following sample injection. The flow rate was maintained at 600 μl min^−1 throughout the sample analysis.
# The mass spectrometer was operated in profile mode at a resolution of 17500, 5 microscans, using 50 msec max injection time and an AGC target of 1e6, and a full mass range from 800-1850 m/z was recorded. The HCD trapping gas was optimized for maximum sensitivity for intact proteins. […]
row,SMILES,Binding %
1,"C=CC(=O)N1CCN(c2nc(NC3CCN(CC(F)(F)F)CC3)nc3c(F)c(-c4c(C)ccc5[nH]ncc45)c(Cl)cc23)CC1 [Example I-12, 1-(4-(6-chloro-8-fluoro-7-(5-methyl-1H-indazol-4-yl)-2-(1-(2,2,2-trifluoroethyl)piperidin-4-ylamino)quinazolin-4-yl)piperazin-1-yl)prop-2-en-1-one]",++ (++ indicates binding activity from 50 to 90%)
2,"C=CC(=O)N1CCN(c2nc(OC3CCOCC3)nc3c(F)c(-c4c(C)ccc5[nH]ncc45)c(Cl)cc23)CC1 [Example I-13, 1-(4-(6-chloro-8-fluoro-7-(5-methyl-1H-indazol-4-yl)-2-(tetrahydro-2H-pyran-4-yloxy)quinazolin-4-yl)piperazin-1-yl)prop-2-en-1-one]",+++ (+++ indicates binding activity greater than 90%)
3,"C=CC(=O)N1CCN(c2nc(OCCN3CCOCC3)nc3c(F)c(-c4cc(O)cc5ccccc45)c(Cl)cc23)CC1 [Example I-14, 1-(4-(6-chloro-8-fluoro-7-(3-hydroxy-naphthalen-1-yl)-2-(2-morpholino-ethoxy)quinazolin-4-yl)piperazin-1-yl)prop-2-en-1-one]",+++ (+++ indicates binding activity greater than 90%)
4,"C=CC(=O)N1CCN(c2nc(OCC3CCOCC3)nc3c(F)c(-c4c(C)ccc5[nH]ncc45)c(Cl)cc23)CC1 [Example I-15, 1-(4-(6-chloro-8-fluoro-7-(5-methyl-1H-indazol-4-yl)-2-((tetrahydro-2H-pyran-4-yl)methoxy)quinazolin-4-yl)piperazin-1-yl)prop-2-en-1-one]",+++ (+++ indicates binding activity greater than 90%)
5,"C=CC(=O)N1CCN(c2nc(OCCN3CCCC3=O)nc3c(F)c(-c4c(O)cccc4F)c(Cl)cc23)CC1 [Example I-16, 1-(2-(4-(4-acryloyl-piperazin-1-yl)-6-chloro-8-fluoro-7-(2-fluoro-6-hydroxyphenyl)quinazolin-2-yloxy)ethyl) pyrrolidin-2-one]",+++ (+++ indicates binding activity greater than 90%)
6,"C=CC(=O)N1CCN(c2nc(SCCN3CCOCC3)nc3c(F)c(-c4c(O)cccc4F)c(Cl)cc23)CC1 [Example I-17, 1-(4-(6-chloro-8-fluoro-7-(2-fluoro-6-hydroxyphenyl)-2-(2-morpholino-ethylthio)quinazolin-4-yl)piperazin-1-yl)prop-2-en-1-one]",++ (++ indicates binding activity from 50 to 90%)
7,"C=CC(=O)N1CCN(c2nc(OC3CCOCC3)nc3c(F)c(-c4c(O)cccc4F)c(Cl)cc23)CC1 [Example I-18, 1-(4-(6-chloro-8-fluoro-7-(2-fluoro-6-hydroxyphenyl)-2-(tetrahydro-2H-pyran-4-yloxy)quinazolin-4-yl)piperazin-1-yl)prop-2-en-1-one]",+++ (+++ indicates binding activity greater than 90%)
8,"C=CC(=O)N1CCN(c2nc(OC3COC3)nc3c(F)c(-c4c(O)cccc4F)c(Cl)cc23)CC1 [Example I-19, 1-(4-(6-chloro-8-fluoro-7-(2-fluoro-6-hydroxyphenyl)-2-(oxetan-3-yloxy)quinazolin-4-yl)piperazin-1-yl)prop-2-en-1-one]",++ (++ indicates binding activity from 50 to 90%)
9,"C=CC(=O)N1CCN(c2nc(NC3CCN(C4CC4)CC3)nc3c(F)c(-c4c(C)ccc5[nH]ncc45)c(Cl)cc23)CC1 [Example I-20, 1-(4-(6-chloro-2-(1-cyclopropyl-piperidin-4-ylamino)-8-fluoro-7-(5-methyl-1H-indazol-4-yl)quinazolin-4-yl)piperazin-1-yl)prop-2-en-1-one]",+++ (+++ indicates binding activity greater than 90%)
10,"C=CC(=O)N1CCN(c2nc(NC3CCN(CC(F)(F)F)CC3)nc3c(F)c(-c4c(O)cccc4F)c(Cl)cc23)CC1 [Example I-21, 1-(4-(6-chloro-8-fluoro-7-(2-fluoro-6-hydroxyphenyl)-2-(1-(2,2,2-trifluoroethyl)piperidin-4-ylamino)quinazolin-4-yl)piperazin-1-yl)prop-2-en-1-one]",+ (+ indicates binding activity up to 50%)
11,"C=CC(=O)N1CCN(c2nc(OC3CCN(C)C3)nc3c(F)c(-c4c(O)cccc4F)c(Cl)cc23)CC1 (stereo not drawn) [Example I-22, 1-(4-(6-chloro-8-fluoro-7-(2-fluoro-6-hydroxyphenyl)-2-(1-methyl-pyrrolidin-3-yloxy)quinazolin-4-yl)piperazin-1-yl)prop-2-en-1-one]",++ (++ indicates binding activity from 50 to 90%)
12,"C=CC(=O)N1CCN(c2nc(N3CC(N4CCC(F)(F)CC4)C3)nc3c(F)c(-c4c(O)cccc4F)c(Cl)cc23)CC1 [Example I-23, 1-(4-(6-chloro-2-(3-(4,4-difluoro-piperidin-1-yl)azetidin-1-yl)-8-fluoro-7-(2-fluoro-6-hydroxyphenyl)quinazolin-4-yl)piperazin-1-yl) prop-2-en-1-one]",++ (++ indicates binding activity from 50 to 90%)
13,"C=CC(=O)N1CCN(c2nc(N3CC(N4CCOCC4)C3)nc3c(F)c(-c4c(O)cccc4F)c(Cl)cc23)CC1 [Example I-24, 1-(4-(6-chloro-8-fluoro-7-(2-fluoro-6-hydroxyphenyl)-2-(3-morpholino-azetidin-1-yl)quinazolin-4-yl)piperazin-1-yl)prop-2-en-1-one]",+++ (+++ indicates binding activity greater than 90%)
14,"C=CC(=O)N1CCN(c2nc(Oc3cnn(C)c3)nc3c(F)c(-c4c(O)cccc4F)c(Cl)cc23)CC1 [Example I-25, 1-(4-(6-chloro-8-fluoro-7-(2-fluoro-6-hydroxyphenyl)-2-(1-methyl-1H-pyrazol-4-yloxy)quinazolin-4-yl)piperazin-1-yl)prop-2-en-1-one]",+++ (+++ indicates binding activity greater than 90%)
15,"C=CC(=O)N1CCN(c2nc(OC3CCN(CC(F)(F)F)C3)nc3c(F)c(-c4c(O)cccc4F)c(Cl)cc23)CC1 (stereo not drawn) [Example I-26, 1-(4-(6-chloro-8-fluoro-7-(2-fluoro-6-hydroxyphenyl)-2-(1-(2,2,2-trifluoroethyl)pyrrolidin-3-yloxy)quinazolin-4-yl)piperazin-1-yl)prop-2-en-1-one]",+++ (+++ indicates binding activity greater than 90%)
16,"C=CC(=O)N1CCN(c2nc(OC3CCN(CC(F)(F)F)CC3)nc3c(F)c(-c4c(O)cccc4F)c(Cl)cc23)CC1 [Example I-27, 1-(4-(6-chloro-8-fluoro-7-(2-fluoro-6-hydroxyphenyl)-2-(1-(2,2,2-trifluoroethyl)piperidin-4-yloxy)quinazolin-4-yl)piperazin-1-yl)prop-2-en-1-one]",+++ (+++ indicates binding activity greater than 90%)
17,"C=CC(=O)N1CCN(c2nc(OCCN3CCC(F)(F)C3)nc3c(F)c(-c4c(O)cccc4F)c(Cl)cc23)CC1 [Example I-30, 1-(4-(6-chloro-2-(2-(3,3-difluoro-pyrrolidin-1-yl)ethoxy)-8-fluoro-7-(2-fluoro-6-hydroxyphenyl)quinazolin-4-yl)piperazin-1-yl) prop-2-en-1-one]",+++ (+++ indicates binding activity greater than 90%)
18,"C=CC(=O)N1CCN(c2nc(OCCN3CC[C@H](OC)C3)nc3c(F)c(-c4c(O)cccc4F)c(Cl)cc23)CC1 [Example I-33, 1-(4-(6-chloro-8-fluoro-7-(2-fluoro-6-hydroxyphenyl)-2-(2-((S)-3-methoxy-pyrrolidin-1-yl)ethoxy)quinazolin-4-yl)piperazin-1-yl)prop-2-en-1-one]",+++ (+++ indicates binding activity greater than 90%)
